Experimental data reported in US20260053834A1, “COVALENT MODIFIERS OF AKT1 AND USES THEREOF” (Terremoto Biosciences, Inc., priority 2023, published 2026).
pIC50: −log10 of the molar value. Read-outs that look alike come from different tables or passages of the source.

Experiments:
AKT1 WT = molecular target: T1, AKT1 WT (Homo sapiens, UniProt P31749); test: Live cell target engagement by NanoBRET competitive probe displacement, AKT1 WT; assay type: binding; details: transfected HEK293 cells, 2 h at 37° C., read-out: AKT1 WT IC50: GeoMean IC50
T1 construct: expressed in transfected cells; host or cells: HEK293
T1 sequence (P31749 whole entry): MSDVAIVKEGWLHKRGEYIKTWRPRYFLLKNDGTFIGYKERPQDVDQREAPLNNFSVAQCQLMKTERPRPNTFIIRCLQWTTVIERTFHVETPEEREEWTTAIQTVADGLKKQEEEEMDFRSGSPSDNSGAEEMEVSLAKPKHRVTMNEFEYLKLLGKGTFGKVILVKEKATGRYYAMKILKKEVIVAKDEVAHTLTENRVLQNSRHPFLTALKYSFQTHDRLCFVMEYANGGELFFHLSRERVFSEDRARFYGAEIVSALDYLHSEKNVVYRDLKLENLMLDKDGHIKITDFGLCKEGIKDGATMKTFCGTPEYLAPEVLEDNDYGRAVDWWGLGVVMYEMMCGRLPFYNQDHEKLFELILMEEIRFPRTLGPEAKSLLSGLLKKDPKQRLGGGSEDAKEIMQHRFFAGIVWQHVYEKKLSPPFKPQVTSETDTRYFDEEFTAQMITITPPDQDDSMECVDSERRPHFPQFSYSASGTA

AKT2 = molecular target: T2, AKT2 (Homo sapiens, UniProt P31751); test: Live cell target engagement by NanoBRET competitive probe displacement, AKT2; assay type: binding; details: transfected HEK293 cells, 2 h at 37° C., read-out: AKT2 IC50: GeoMean IC50
T2 construct: expressed in transfected cells; host or cells: HEK293
T2 sequence (P31751 whole entry): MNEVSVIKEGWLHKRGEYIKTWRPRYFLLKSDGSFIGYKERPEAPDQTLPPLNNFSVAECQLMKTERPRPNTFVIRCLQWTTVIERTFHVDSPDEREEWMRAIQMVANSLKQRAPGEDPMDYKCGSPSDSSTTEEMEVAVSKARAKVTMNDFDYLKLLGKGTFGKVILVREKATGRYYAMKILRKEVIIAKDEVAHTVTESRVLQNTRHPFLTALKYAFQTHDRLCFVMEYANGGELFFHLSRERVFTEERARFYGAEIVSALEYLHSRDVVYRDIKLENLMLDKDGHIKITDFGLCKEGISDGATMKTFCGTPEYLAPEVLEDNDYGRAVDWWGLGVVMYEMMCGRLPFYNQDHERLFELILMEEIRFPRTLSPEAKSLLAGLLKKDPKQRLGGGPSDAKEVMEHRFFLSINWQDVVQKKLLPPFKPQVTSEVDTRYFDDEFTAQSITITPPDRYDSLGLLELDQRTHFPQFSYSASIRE

[1] = system: LAPC4 prostate cancer cells, which express the AKT1 E17K allele; test: Antiproliferative effects in LAPC4 cells (CellTiter Glo, 72 h); assay type: cell-based; details: read-out: LAPC4 proliferation IC50: GeoMean IC50
How it was run: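 Cells grown in IMDM with 12% FBS, seeded at 1,000 cells/well and treated with compound dilutions in DMSO for 72 h. Intracellular ATP read by luminescence. IC50 from a log(inhibitor) vs. response Hill fit.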

AKT1 E17K = molecular target: T3, AKT1 E17K (Homo sapiens, UniProt P31749, E17K); test: Live cell target engagement by NanoBRET competitive probe displacement, AKT1 E17K; assay type: binding; details: transfected HEK293 cells, 2 h at 37° C., read-out: AKT1 E17K IC50: GeoMean IC50
T3 construct: expressed in transfected cells; host or cells: HEK293
T3 sequence (P31749 whole entry E17K): as the sequence (P31749 whole entry) above, with E17K counted along it

| SMILES | pIC50 (AKT1 WT) | pIC50 (AKT2) | pIC50 ([1]; Homo sapiens, LAPC4, 72 h) | pIC50 (AKT1 E17K) | pIC50 [1] |
| --- | --- | --- | --- | --- | --- |
| Nc1ncccc1-c1nc2ccc(-n3ncc4c3COC4)nc2n1-c1ccc2c(c1)CC[C@@H]2NC(=O)c1ccc(O)c(C=O)c1 [Example 206, N-[(1S)-5-[2-(2-aminopyridin-3-yl)-5-{4H,6H-furo[3,4-c]pyrazol-1-yl}imidazo[4,5-b]pyridin-3-yl]-2,3-dihydro-1H-inden-1-yl]-3-formyl-4-hydroxybenzamide] | 7.00 to 8.00 | 5.70 to 7.00 | 7.00 to 8.00 | > 8.00 | – |
| Nc1ncccc1-c1nc2ccc(-c3ccccc3)nc2n1-c1ccc2c(c1)CC[C@@H]2NC(=O)c1cc(C=O)c2[nH]nnc2c1 [Example 137, N-[(1S)-5-[2-(2-aminopyridin-3-yl)-5-phenylimidazo[4,5-b]pyridin-3-yl]-2,3-dihydro-1H-inden-1-yl]-7-formyl-1H-1,2,3-benzotriazole-5-carboxamide] | > 8.00 | > 8.00 | 7.00 to 8.00 | > 8.00 | – |
| [2H]C(=O)c1cc(C(=O)N[C@H]2CCc3cc(-n4c(-c5cccnc5N)nc5c(C)cc(-n6cccn6)nc54)ccc32)ccc1O [Example 183, (S)—N-(5-(2-(2-aminopyridin-3-yl)-7-methyl-5-(1H-pyrazol-1-yl)-3H-imidazo[4,5-b]pyridin-3-yl)-2,3-dihydro-1H-inden-1-yl)-3-(formyl-d)-4-hydroxybenzamide] | 7.00 to 8.00 | 5.70 to 7.00 | 5.70 to 7.00 | 7.00 to 8.00 | – |
| Nc1ncccc1-c1nc2ccc(-n3cccn3)nc2n1-c1ccc2c(c1)C1CC1C2NC(=O)c1ccc(O)c(C=O)c1 (stereo not drawn) [Example 252, N-(3-(2-(2-aminopyridin-3-yl)-5-(1H-pyrazol-1-yl)-3H-imidazo[4,5-b]pyridin-3-yl)-1,1a,6,6a-tetrahydrocyclopropa[a]inden-6-yl)-3-formyl-4-hydroxybenzamide] | 5.70 to 7.00 | ≤ 5.70 | 5.70 to 7.00 | 5.70 to 7.00 | – |
| Cc1cc(C)n(-c2ccc3nc(-c4cccnc4N)n(-c4ccc5c(c4)CC[C@@H]5NC(=O)c4ccc(O)c(C=O)c4)c3n2)n1 [Example 129, N-[(1S)-5-[2-(2-aminopyridin-3-yl)-5-(3,5-dimethylpyrazol-1-yl)imidazo[4,5-b]pyridin-3-yl]-2,3-dihydro-1H-inden-1-yl]-3-formyl-4-hydroxybenzamide] | 7.00 to 8.00 | 5.70 to 7.00 | 5.70 to 7.00 | 7.00 to 8.00 | – |
| Nc1ncccc1-c1nc2ccc(-n3cccn3)nc2n1-c1ccc2c(c1)CC(F)(F)[C@@H]2NC(=O)c1ccc(O)c(C=O)c1 [Example 195, (R)—N-(5-(2-(2-aminopyridin-3-yl)-5-(1H-pyrazol-1-yl)-3H-imidazo[4,5-b]pyridin-3-yl)-2,2-difluoro-2,3-dihydro-1H-inden-1-yl)-3-formyl-4-hydroxybenzamide] | 5.70 to 7.00 | 5.70 to 7.00 | 7.00 to 8.00 | 7.00 to 8.00 | – |
| Cn1ccc(-c2ccc3nc(-c4cccnc4N)n(-c4ccc5c(c4)CC[C@@H]5NC(=O)c4cc(C=O)c(O)cc4F)c3n2)n1 [Example 241, N-[(1S)-5-[2-(2-aminopyridin-3-yl)-5-(1-methylpyrazol-3-yl)imidazo[4,5-b]pyridin-3-yl]-2,3-dihydro-1H-inden-1-yl]-2-fluoro-5-formyl-4-hydroxybenzamide] | 7.00 to 8.00 | 5.70 to 7.00 | 7.00 to 8.00 | > 8.00 | – |
| Nc1ncccc1-c1nc2ccc(-n3ccc(N4CCC4)n3)nc2n1-c1ccc2c(c1)CC[C@@H]2NC(=O)c1ccc(O)c(C=O)c1 [Example 156, (S)—N-(5-(2-(2-aminopyridin-3-yl)-5-(3-(azetidin-1-yl)-1H-pyrazol-1-yl)-3H-imidazo[4,5-b]pyridin-3-yl)-2,3-dihydro-1H-inden-1-yl)-3-formyl-4-hydroxybenzamide] | 7.00 to 8.00 | 7.00 to 8.00 | > 8.00 | 7.00 to 8.00 | – |
| COCc1ccn(-c2ccc3nc(-c4cccnc4N)n(-c4ccc5c(c4)CC[C@@H]5NC(=O)c4ccc(O)c(C=O)c4)c3n2)n1 [Example 126, N-[(1S)-5-[2-(2-aminopyridin-3-yl)-5-[3-(methoxymethyl)pyrazol-1-yl]imidazo[4,5-b]pyridin-3-yl]-2,3-dihydro-1H-inden-1-yl]-3-formyl-4-hydroxybenzamide] | 7.00 to 8.00 | 5.70 to 7.00 | 7.00 to 8.00 | > 8.00 | – |
| Cc1cc2nc(-c3cccnc3N)n(-c3ccc4c(c3)CC[C@@H]4NC(=O)c3ccc(O)c(C=O)c3)c2nc1-n1cccn1 [Example 229, (S)—N-(5-(2-(2-aminopyridin-3-yl)-6-methyl-5-(1H-pyrazol-1-yl)-3H-imidazo[4,5-b]pyridin-3-yl)-2,3-dihydro-1H-inden-1-yl)-3-formyl-4-hydroxybenzamide] | 5.70 to 7.00 | 5.70 to 7.00 | 5.70 to 7.00 | 7.00 to 8.00 | – |
| C#Cc1c(C(=O)N[C@H]2CCc3cc(-n4c(-c5cccnc5N)nc5ccc(-n6cccn6)nc54)ccc32)ccc(O)c1C=O [Example 112, N-[(1S)-5-[2-(2-aminopyridin-3-yl)-5-(pyrazol-1-yl)imidazo[4,5-b]pyridin-3-yl]-2,3-dihydro-1H-inden-1-yl]-2-ethynyl-3-formyl-4-hydroxybenzamide] | 7.00 to 8.00 | 5.70 to 7.00 | ≤ 5.70 | 7.00 to 8.00 | – |
| Nc1ncccc1-c1nc2ccc(-c3ccccc3)nc2n1-c1ccc2c(c1)CC[C@@H]2NC(=O)c1ccc(B(O)O)c(C=O)c1 [Example 161, (S)-(4-((5-(2-(2-aminopyridin-3-yl)-5-phenyl-3H-imidazo[4,5-b]pyridin-3-yl)-2,3-dihydro-1H-inden-1-yl)carbamoyl)-2-formylphenyl)boronic acid] | 7.00 to 8.00 | 5.70 to 7.00 | 5.70 to 7.00 | 7.00 to 8.00 | – |
| COc1cnn(-c2ccc3nc(-c4cccnc4N)n(-c4ccc5c(c4)CC[C@@H]5NC(=O)c4ccc(O)c(C=O)c4)c3n2)c1 [Example 83, N-[(1S)-5-[2-(2-aminopyridin-3-yl)-5-(4-methoxypyrazol-1-yl)imidazo[4,5-b]pyridin-3-yl]-2,3-dihydro-1H-inden-1-yl]-3-formyl-4-hydroxybenzamide] | 7.00 to 8.00 | 5.70 to 7.00 | 5.70 to 7.00 | 7.00 to 8.00 | – |
| Cn1cc(-c2ccc3nc(-c4cccnc4N)n(-c4ccc5c(c4)CC[C@@H]5NC(=O)c4ccc(O)c(C=O)c4)c3n2)cn1 [Example 28, (S)—N-(5-(2-(2-aminopyridin-3-yl)-5-(1-methyl-1H-pyrazol-4-yl)-3H-imidazo[4,5-b]pyridin-3-yl)-2,3-dihydro-1H-inden-1-yl)-3-formyl-4-hydroxybenzamide] | 7.00 to 8.00 | 5.70 to 7.00 | 7.00 to 8.00 | 7.00 to 8.00 | – |
| Nc1ncccc1-c1nc2ccc(-n3cccn3)nc2n1-c1ccc2c(c1)CC(F)[C@@H]2NC(=O)c1ccc(O)c(C=O)c1 (single isomer, unassigned) [Example 256, N-[(1R,2R*)-5-[2-(2-aminopyridin-3-yl)-5-(pyrazol-1-yl)imidazo[4,5-b]pyridin-3-yl]-2-fluoro-2,3-dihydro-1H-inden-1-yl]-3-formyl-4-hydroxybenzamide] | 7.00 to 8.00 | 5.70 to 7.00 | – | 7.00 to 8.00 | 7.00 to 8.00 |
